Read-outs that look alike come from different tables or passages of the source.
Tests used:
[1] = target: T1, 5α-Red1 (5α-reductase 1; SRD5A1) (Rattus norvegicus, UniProt P24008); test: radiometric TLC enzyme assay, transfected COS-1 microsomes; assay type: biochemical
T1 construct: Srd5a1 in pcDNA1.1, transient expression in COS-1 cells, microsomal fraction
T1 sequence (P24008 1-259): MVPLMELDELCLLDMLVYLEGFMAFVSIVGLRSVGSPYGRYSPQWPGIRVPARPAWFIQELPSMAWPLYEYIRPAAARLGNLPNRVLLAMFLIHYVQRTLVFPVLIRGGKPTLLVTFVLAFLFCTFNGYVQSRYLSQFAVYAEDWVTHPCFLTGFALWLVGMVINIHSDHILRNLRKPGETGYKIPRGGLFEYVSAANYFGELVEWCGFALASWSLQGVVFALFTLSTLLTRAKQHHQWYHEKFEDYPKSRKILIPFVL
Text: radiometric TLC enzyme assay, transfected COS-1 microsomes on 5α-Red1 (5α-reductase 1; SRD5A1)

[2] = target: T2, 3α-HSD (3α-hydroxysteroid dehydrogenase; AKR1C14) (Rattus norvegicus, UniProt P23457); test: radiometric TLC enzyme assay, transfected COS-1 cytosol; assay type: biochemical
T2 construct: gene Akr1c9; Akr1c14 in pRc/CMV, transient expression in COS-1 cells, cytosolic fraction
T2 sequence (P23457 1-322): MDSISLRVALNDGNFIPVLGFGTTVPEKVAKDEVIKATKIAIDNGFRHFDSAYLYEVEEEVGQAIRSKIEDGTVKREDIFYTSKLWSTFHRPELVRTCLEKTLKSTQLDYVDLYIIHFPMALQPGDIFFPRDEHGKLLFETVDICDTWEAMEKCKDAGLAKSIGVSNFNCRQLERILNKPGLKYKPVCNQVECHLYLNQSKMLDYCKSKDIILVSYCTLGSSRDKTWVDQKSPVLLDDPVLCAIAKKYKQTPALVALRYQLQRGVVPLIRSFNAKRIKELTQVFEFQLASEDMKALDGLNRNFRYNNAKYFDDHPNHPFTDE
Text: radiometric TLC enzyme assay, transfected COS-1 cytosol on 3α-HSD (3α-hydroxysteroid dehydrogenase; AKR1C14)

[3] = target: T3, RDH2 (retinol dehydrogenase 2) (Rattus norvegicus, UniProt P50170); test: radiometric TLC enzyme assay, transfected COS-1 microsomes; assay type: biochemical
T3 construct: gene Rdh16; full-length cDNA in pcDNA1.1, transient expression in COS-1 cells, microsomal fraction
T3 sequence (P50170 1-317): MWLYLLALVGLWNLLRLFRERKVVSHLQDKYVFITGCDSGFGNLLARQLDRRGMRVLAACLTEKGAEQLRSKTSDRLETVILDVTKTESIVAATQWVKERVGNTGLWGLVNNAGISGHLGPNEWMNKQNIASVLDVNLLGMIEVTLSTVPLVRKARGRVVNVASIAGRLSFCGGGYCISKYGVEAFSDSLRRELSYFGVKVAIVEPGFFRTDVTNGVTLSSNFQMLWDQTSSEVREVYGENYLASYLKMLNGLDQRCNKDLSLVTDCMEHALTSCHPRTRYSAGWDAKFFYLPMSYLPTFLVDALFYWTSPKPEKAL
Text: radiometric TLC enzyme assay, transfected COS-1 microsomes on RDH2 (retinol dehydrogenase 2)

[4] = target: T3, RDH2 (retinol dehydrogenase 2); test: as above; assay type: biochemical; conditions: read-out: % of control activity at 100 μM
[5] = target: T1, 5α-Red1 (5α-reductase 1; SRD5A1); test: as above; assay type: biochemical; conditions: read-out: % of control activity at 100 μM
[6] = substrate: C[C@]12CC[C@@H](O)C[C@@H]1CC[C@@H]1[C@@H]2CC[C@]2(C)[C@@H](O)CC[C@@H]12; test: cells, lysate or membranes; conditions: 0.2 mM NAD+, 0.0315–10 µM DIOL, PBS pH 7.2, radiolabelled tracer
[7] = substrate: C[C@]12CCC(=O)C[C@@H]1CC[C@@H]1[C@@H]2CC[C@]2(C)[C@@H](O)CC[C@@H]12; test: cells, lysate or membranes; conditions: 0.2 mM NADPH, 0.0315–10 µM dihydrotestosterone, PBS pH 7.2, radiolabelled tracer
[8] = substrate: C[C@]12CC[C@H]3[C@@H](CCC4=CC(=O)CC[C@@]43C)[C@@H]1CC[C@@H]2O; test: cells, lysate or membranes; conditions: 0.2 mM NADPH, 0.0315–10 µM testosterone, PBS pH 7.2, radiolabelled tracer

CC(C)(C)C(O)(CCc1ccc(Cl)cc1)Cn1cncn1 (stereo not drawn) [tebuconazole]
IC50 [1]: 8.67 ± 0.771 µM
IC50 [2]: ~100 µM
IC50 ([3]; read-out: 3α-HSD): > 100 µM

CC(C)(C)C(=O)C(Oc1ccc(Cl)cc1)n1cncn1 (stereo not drawn) [triadimefon]
IC50 [1]: 17.39 ± 0.079 µM
IC50 [2]: 26.49 ± 0.076 µM
IC50 ([3]; read-out: RDH2): > 100 µM

C=CC1(C)OC(=O)N(c2cc(Cl)cc(Cl)c2)C1=O (stereo not drawn) [vinclozolin]
IC50 [2]: ~100 µM
remaining activity at 100 µM [4]: 85.5 ± 2.2%
remaining activity at 100 µM [5]: 74.2 ± 5.57%

B1: RDH2 (retinol dehydrogenase 2) (Rattus norvegicus) (protein)
chain: T3 sequence (P50170 1-317)
Km [6]: 2.850 ± 0.037 µM
Vmax [6]: 0.00053 µmol/min/mg

B2: 3α-HSD (3α-hydroxysteroid dehydrogenase; AKR1C14) (Rattus norvegicus) (protein)
chain: T2 sequence (P23457 1-322)
Km [7]: 3.148 ± 0.197 µM
Vmax [7]: 6.67e-05 µmol/min/mg

B3: 5α-Red1 (5α-reductase 1; SRD5A1) (Rattus norvegicus) (protein)
chain: T1 sequence (P24008 1-259)
Km [8]: 1.397 ± 0.35 µM
Vmax [8]: 3.49e-06 µmol/min/mg

— paper PMC5546122, “Effects of Fungicides on Rat's Neurosteroid Synthetic Enzymes” (BioMed Research International, 2017)
